According to patent publication US20170190671A1, “BIS(ARYL)CATECHOL DERIVATIVES AS HERBICIDES” (E I DU PONT DE NEMOURS AND COMPANY, priority 2014, published 2017):

Tests used:
Test in all cases: Test D preemergence
Assay type in all cases: in vivo
Settings in all cases: scale 0 to 100
[1] = tested on: chamomile (scentless chamomile, Matricaria inodora)
How it was run: (§1)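 Preemergent and postemergent sprays of solvent/surfactant-formulated compound; visual rating 0 (none) to 100 (complete control) after 14–21 days versus controls.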

[2] = tested on: oilseed rape (Brassica napus)
How it was run: as §1

[3] = tested on: windgrass (Apera spica-venti)
How it was run: as §1

[4] = tested on: winter barley (Hordeum vulgare)
How it was run: as §1

[5] = tested on: bluegrass (annual bluegrass, Poa annua)
How it was run: as §1

[6] = tested on: downy bromegrass (Bromus tectorum)
How it was run: as §1

[7] = tested on: canarygrass (Phalaris minor)
How it was run: as §1

[8] = tested on: blackgrass (Alopecurus myosuroides)
How it was run: as §1

[9] = tested on: field poppy (Papaver rhoeas)
How it was run: as §1

[10] = tested on: wild mustard (Sinapis arvensis)
How it was run: as §1

[11] = tested on: pigweed (Amaranthus retroflexus)
How it was run: as §1

[12] = tested on: field violet (Viola arvensis)
How it was run: as §1

[13] = tested on: Russian thistle (Salsola kali)
How it was run: as §1

[14] = tested on: deadnettle (henbit deadnettle, Lamium amplexicaule)
How it was run: as §1

[15] = tested on: green foxtail (Setaria viridis)
How it was run: as §1

[16] = tested on: speedwell (bird's-eye speedwell, Veronica persica)
How it was run: as §1

[17] = tested on: cutleaf geranium (Geranium dissectum)
How it was run: as §1

[18] = tested on: wild buckwheat (Polygonum convolvulus)
How it was run: as §1

[19] = tested on: lambsquarters (Chenopodium album)
How it was run: as §1

[20] = tested on: Italian ryegrass (Lolium multiflorum)
How it was run: as §1

[21] = tested on: galium (catchweed bedstraw, Galium aparine)
How it was run: as §1

Fc1cnc(Oc2c(Br)cccc2Oc2ncc(Cl)cn2)nc1 [Compound 22]
95: Plant response rating, Field Poppy ([9]; 31 g ai/ha) | Plant response rating, Field Violet ([12]; 62 g ai/ha) | Plant response rating, Field Violet ([12]; 125 g ai/ha)
85: Plant response rating, Deadnettle ([14]; 62 g ai/ha) | Plant response rating, Speedwell ([16]; 16 g ai/ha) | Plant response rating, Buckwheat, Wild ([18]; 125 g ai/ha) | Plant response rating, Lambsquarters ([19]; 31 g ai/ha)
40: Plant response rating, Chamomile ([1]; 31 g ai/ha) | Plant response rating, Oilseed Rape ([2]; 31 g ai/ha) | Plant response rating, Barley, Winter ([4]; 125 g ai/ha) | Plant response rating, Foxtail, Green ([15]; 62 g ai/ha) | Plant response rating, Foxtail, Green ([15]; 125 g ai/ha)
25: Plant response rating, Windgrass ([3]; 62 g ai/ha) | Plant response rating, Bromegrass, Downy ([6]; 31 g ai/ha) | Plant response rating, Canarygrass ([7]; 31 g ai/ha) | Plant response rating, Geranium, Cutleaf ([17]; 16 g ai/ha) | Plant response rating, Ryegrass, Italian ([20]; 62 g ai/ha)
30: Plant response rating, Chamomile ([1]; 16 g ai/ha) | Plant response rating, Oilseed Rape ([2]; 16 g ai/ha) | Plant response rating, Bromegrass, Downy ([6]; 62 g ai/ha) | Plant response rating, Mustard, Wild ([10]; 31 g ai/ha)
5: Plant response rating, Barley, Winter ([4]; 62 g ai/ha) | Plant response rating, Blackgrass ([8]; 16 g ai/ha) | Plant response rating, Russian Thistle ([13]; 62 g ai/ha) | Plant response rating, Russian Thistle ([13]; 125 g ai/ha)
0: Plant response rating, Barley, Winter ([4]; 16 g ai/ha) | Plant response rating, Barley, Winter ([4]; 31 g ai/ha) | Plant response rating, Bluegrass ([5]; 16 g ai/ha) | Plant response rating, Russian Thistle ([13]; 16 g ai/ha) | Plant response rating, Russian Thistle ([13]; 31 g ai/ha)
70: Plant response rating, Oilseed Rape ([2]; 62 g ai/ha) | Plant response rating, Windgrass ([3]; 125 g ai/ha) | Plant response rating, Pigweed ([11]; 31 g ai/ha) | Plant response rating, Geranium, Cutleaf ([17]; 62 g ai/ha)
20: Plant response rating, Windgrass ([3]; 31 g ai/ha) | Plant response rating, Bluegrass ([5]; 31 g ai/ha) | Plant response rating, Blackgrass ([8]; 31 g ai/ha) | Plant response rating, Mustard, Wild ([10]; 16 g ai/ha) | Plant response rating, Deadnettle ([14]; 16 g ai/ha) | Plant response rating, Lambsquarters ([19]; 16 g ai/ha)
100: Plant response rating, Chamomile ([1]; 125 g ai/ha) | Plant response rating, Field Poppy ([9]; 62 g ai/ha) | Plant response rating, Field Poppy ([9]; 125 g ai/ha) | Plant response rating, Mustard, Wild ([10]; 62 g ai/ha) | Plant response rating, Mustard, Wild ([10]; 125 g ai/ha) | Plant response rating, Pigweed ([11]; 62 g ai/ha) | Plant response rating, Pigweed ([11]; 125 g ai/ha) | Plant response rating, Deadnettle ([14]; 125 g ai/ha) | Plant response rating, Speedwell ([16]; 62 g ai/ha) | Plant response rating, Speedwell ([16]; 125 g ai/ha) | Plant response rating, Geranium, Cutleaf ([17]; 125 g ai/ha) | Plant response rating, Lambsquarters ([19]; 62 g ai/ha) | Plant response rating, Lambsquarters ([19]; 125 g ai/ha) | Plant response rating, Galium ([21]; 125 g ai/ha)
55: Plant response rating, Chamomile ([1]; 62 g ai/ha) | Plant response rating, Canarygrass ([7]; 125 g ai/ha) | Plant response rating, Blackgrass ([8]; 125 g ai/ha)
10: Plant response rating, Canarygrass ([7]; 16 g ai/ha) | Plant response rating, Buckwheat, Wild ([18]; 16 g ai/ha) | Plant response rating, Buckwheat, Wild ([18]; 31 g ai/ha) | Plant response rating, Ryegrass, Italian ([20]; 16 g ai/ha)
60: Plant response rating, Bluegrass ([5]; 62 g ai/ha) | Plant response rating, Deadnettle ([14]; 31 g ai/ha) | Plant response rating, Galium ([21]; 16 g ai/ha)
65: Plant response rating, Field Poppy ([9]; 16 g ai/ha) | Plant response rating, Ryegrass, Italian ([20]; 125 g ai/ha) | Plant response rating, Galium ([21]; 31 g ai/ha)
90: Plant response rating, Oilseed Rape ([2]; 125 g ai/ha) | Plant response rating, Bluegrass ([5]; 125 g ai/ha) | Plant response rating, Speedwell ([16]; 31 g ai/ha)
15: Plant response rating, Windgrass ([3]; 16 g ai/ha) | Plant response rating, Bromegrass, Downy ([6]; 16 g ai/ha) | Plant response rating, Field Violet ([12]; 16 g ai/ha) | Plant response rating, Foxtail, Green ([15]; 16 g ai/ha) | Plant response rating, Buckwheat, Wild ([18]; 62 g ai/ha) | Plant response rating, Ryegrass, Italian ([20]; 31 g ai/ha)
35: Plant response rating, Bromegrass, Downy ([6]; 125 g ai/ha) | Plant response rating, Canarygrass ([7]; 62 g ai/ha) | Plant response rating, Blackgrass ([8]; 62 g ai/ha) | Plant response rating, Foxtail, Green ([15]; 31 g ai/ha) | Plant response rating, Geranium, Cutleaf ([17]; 31 g ai/ha)
75: Plant response rating, Pigweed ([11]; 16 g ai/ha) | Plant response rating, Field Violet ([12]; 31 g ai/ha) | Plant response rating, Galium ([21]; 62 g ai/ha)

Fc1cnc(Oc2c(F)cccc2Oc2ncc(Cl)cn2)nc1 [Compound 23]
60: Plant response rating, Canarygrass ([7]; 16 g ai/ha)
30: Plant response rating, Barley, Winter ([4]; 62 g ai/ha) | Plant response rating, Blackgrass ([8]; 31 g ai/ha)
90: Plant response rating, Field Poppy ([9]; 62 g ai/ha)
25: Plant response rating, Bromegrass, Downy ([6]; 31 g ai/ha) | Plant response rating, Field Violet ([12]; 16 g ai/ha) | Plant response rating, Field Violet ([12]; 31 g ai/ha) | Plant response rating, Geranium, Cutleaf ([17]; 16 g ai/ha) | Plant response rating, Lambsquarters ([19]; 16 g ai/ha)
15: Plant response rating, Deadnettle ([14]; 16 g ai/ha)
80: Plant response rating, Oilseed Rape ([2]; 16 g ai/ha) | Plant response rating, Bluegrass ([5]; 62 g ai/ha) | Plant response rating, Canarygrass ([7]; 62 g ai/ha) | Plant response rating, Field Poppy ([9]; 31 g ai/ha) | Plant response rating, Deadnettle ([14]; 62 g ai/ha)
40: Plant response rating, Buckwheat, Wild ([18]; 16 g ai/ha)
95: Plant response rating, Field Violet ([12]; 62 g ai/ha) | Plant response rating, Deadnettle ([14]; 125 g ai/ha) | Plant response rating, Galium ([21]; 62 g ai/ha)
20: Plant response rating, Chamomile ([1]; 16 g ai/ha) | Plant response rating, Windgrass ([3]; 16 g ai/ha) | Plant response rating, Bluegrass ([5]; 16 g ai/ha) | Plant response rating, Blackgrass ([8]; 16 g ai/ha)
5: Plant response rating, Bromegrass, Downy ([6]; 16 g ai/ha) | Plant response rating, Russian Thistle ([13]; 62 g ai/ha) | Plant response rating, Russian Thistle ([13]; 125 g ai/ha) | Plant response rating, Foxtail, Green ([15]; 31 g ai/ha) | Plant response rating, Ryegrass, Italian ([20]; 16 g ai/ha)
75: Plant response rating, Chamomile ([1]; 31 g ai/ha) | Plant response rating, Chamomile ([1]; 62 g ai/ha) | Plant response rating, Windgrass ([3]; 31 g ai/ha) | Plant response rating, Ryegrass, Italian ([20]; 125 g ai/ha) | Plant response rating, Galium ([21]; 31 g ai/ha)
70: Plant response rating, Barley, Winter ([4]; 125 g ai/ha) | Plant response rating, Bromegrass, Downy ([6]; 125 g ai/ha) | Plant response rating, Blackgrass ([8]; 62 g ai/ha) | Plant response rating, Galium ([21]; 16 g ai/ha)
98: Plant response rating, Oilseed Rape ([2]; 62 g ai/ha) | Plant response rating, Windgrass ([3]; 62 g ai/ha) | Plant response rating, Field Poppy ([9]; 125 g ai/ha) | Plant response rating, Mustard, Wild ([10]; 16 g ai/ha) | Plant response rating, Pigweed ([11]; 16 g ai/ha)
50: Plant response rating, Buckwheat, Wild ([18]; 31 g ai/ha)
85: Plant response rating, Oilseed Rape ([2]; 31 g ai/ha) | Plant response rating, Canarygrass ([7]; 125 g ai/ha) | Plant response rating, Blackgrass ([8]; 125 g ai/ha)
35: Plant response rating, Bromegrass, Downy ([6]; 62 g ai/ha) | Plant response rating, Ryegrass, Italian ([20]; 62 g ai/ha)
55: Plant response rating, Foxtail, Green ([15]; 62 g ai/ha)
10: Plant response rating, Ryegrass, Italian ([20]; 31 g ai/ha)
65: Plant response rating, Bluegrass ([5]; 31 g ai/ha) | Plant response rating, Canarygrass ([7]; 31 g ai/ha) | Plant response rating, Field Poppy ([9]; 16 g ai/ha) | Plant response rating, Deadnettle ([14]; 31 g ai/ha)
0: Plant response rating, Barley, Winter ([4]; 16 g ai/ha) | Plant response rating, Barley, Winter ([4]; 31 g ai/ha) | Plant response rating, Russian Thistle ([13]; 16 g ai/ha) | Plant response rating, Russian Thistle ([13]; 31 g ai/ha) | Plant response rating, Foxtail, Green ([15]; 16 g ai/ha)
100: Plant response rating, Chamomile ([1]; 125 g ai/ha) | Plant response rating, Oilseed Rape ([2]; 125 g ai/ha) | Plant response rating, Windgrass ([3]; 125 g ai/ha) | Plant response rating, Bluegrass ([5]; 125 g ai/ha) | Plant response rating, Mustard, Wild ([10]; 31 g ai/ha) | Plant response rating, Mustard, Wild ([10]; 62 g ai/ha) | Plant response rating, Mustard, Wild ([10]; 125 g ai/ha) | Plant response rating, Pigweed ([11]; 31 g ai/ha) | Plant response rating, Pigweed ([11]; 62 g ai/ha) | Plant response rating, Pigweed ([11]; 125 g ai/ha) | Plant response rating, Field Violet ([12]; 125 g ai/ha) | Plant response rating, Foxtail, Green ([15]; 125 g ai/ha) | Plant response rating, Speedwell ([16]; 16 g ai/ha) | Plant response rating, Speedwell ([16]; 31 g ai/ha) | Plant response rating, Speedwell ([16]; 62 g ai/ha) | Plant response rating, Speedwell ([16]; 125 g ai/ha) | Plant response rating, Geranium, Cutleaf ([17]; 31 g ai/ha) | Plant response rating, Geranium, Cutleaf ([17]; 62 g ai/ha) | Plant response rating, Geranium, Cutleaf ([17]; 125 g ai/ha) | Plant response rating, Buckwheat, Wild ([18]; 62 g ai/ha) | Plant response rating, Buckwheat, Wild ([18]; 125 g ai/ha) | Plant response rating, Lambsquarters ([19]; 31 g ai/ha) | Plant response rating, Lambsquarters ([19]; 62 g ai/ha) | Plant response rating, Lambsquarters ([19]; 125 g ai/ha) | Plant response rating, Galium ([21]; 125 g ai/ha)
